SMILES strings stand for the structures. Where a name gives a salt, the structure may show the parent alone.

The series can be described thus: In-vivo testing: plasma pharmacokinetics after single oral gavage of suspension in rats. To be noted: Sprague-Dawley, rat, 10 mg/kg.

For orientation: AUC(0-t) means exposure summed from dosing to a finite time, without extrapolation to infinity. High values mean high exposure, low ones low exposure. Broadly, the Cmax is the highest concentration seen after dosing. Broadly, the Tmax is the time from dosing to the highest level. On to `Cc1cn(-c2cc(NC(=O)c3ccc(C)c(Nc4nccc(-c5cccnc5)n4)c3)cc(C(F)(F)F)c2)cn1` [Nilotinib HCl monohydrate, 4-methyl-N-[3-(4-methylimidazol-1-yl)-5-(trifluoromethyl)phenyl]-3-[(4-pyridin-3-ylpyrimidin-2-yl)amino]benzamide], for which the AUC(0-t) worked out at 2910 ng·h/mL, the peak level (Cmax) was 493 ng/mL and the Tmax amounted to 2 h.
